ChEMBL document CHEMBL2073760, “Efflux transport of a new quinolone antibacterial agent, HSR-903, across the blood-brain barrier” (J Pharmacol Exp Ther, 1999)

Molecular target: ATP-dependent translocase ABCB1 (Mus musculus, UniProt P21447)
Test: TP_TRANSPORTER: increase in brain concentration in mdr1a(-/-) mouse
Assay type: functional, organism-based
Details: in vivo

Sequence of ATP-dependent translocase ABCB1 (P21447 whole entry): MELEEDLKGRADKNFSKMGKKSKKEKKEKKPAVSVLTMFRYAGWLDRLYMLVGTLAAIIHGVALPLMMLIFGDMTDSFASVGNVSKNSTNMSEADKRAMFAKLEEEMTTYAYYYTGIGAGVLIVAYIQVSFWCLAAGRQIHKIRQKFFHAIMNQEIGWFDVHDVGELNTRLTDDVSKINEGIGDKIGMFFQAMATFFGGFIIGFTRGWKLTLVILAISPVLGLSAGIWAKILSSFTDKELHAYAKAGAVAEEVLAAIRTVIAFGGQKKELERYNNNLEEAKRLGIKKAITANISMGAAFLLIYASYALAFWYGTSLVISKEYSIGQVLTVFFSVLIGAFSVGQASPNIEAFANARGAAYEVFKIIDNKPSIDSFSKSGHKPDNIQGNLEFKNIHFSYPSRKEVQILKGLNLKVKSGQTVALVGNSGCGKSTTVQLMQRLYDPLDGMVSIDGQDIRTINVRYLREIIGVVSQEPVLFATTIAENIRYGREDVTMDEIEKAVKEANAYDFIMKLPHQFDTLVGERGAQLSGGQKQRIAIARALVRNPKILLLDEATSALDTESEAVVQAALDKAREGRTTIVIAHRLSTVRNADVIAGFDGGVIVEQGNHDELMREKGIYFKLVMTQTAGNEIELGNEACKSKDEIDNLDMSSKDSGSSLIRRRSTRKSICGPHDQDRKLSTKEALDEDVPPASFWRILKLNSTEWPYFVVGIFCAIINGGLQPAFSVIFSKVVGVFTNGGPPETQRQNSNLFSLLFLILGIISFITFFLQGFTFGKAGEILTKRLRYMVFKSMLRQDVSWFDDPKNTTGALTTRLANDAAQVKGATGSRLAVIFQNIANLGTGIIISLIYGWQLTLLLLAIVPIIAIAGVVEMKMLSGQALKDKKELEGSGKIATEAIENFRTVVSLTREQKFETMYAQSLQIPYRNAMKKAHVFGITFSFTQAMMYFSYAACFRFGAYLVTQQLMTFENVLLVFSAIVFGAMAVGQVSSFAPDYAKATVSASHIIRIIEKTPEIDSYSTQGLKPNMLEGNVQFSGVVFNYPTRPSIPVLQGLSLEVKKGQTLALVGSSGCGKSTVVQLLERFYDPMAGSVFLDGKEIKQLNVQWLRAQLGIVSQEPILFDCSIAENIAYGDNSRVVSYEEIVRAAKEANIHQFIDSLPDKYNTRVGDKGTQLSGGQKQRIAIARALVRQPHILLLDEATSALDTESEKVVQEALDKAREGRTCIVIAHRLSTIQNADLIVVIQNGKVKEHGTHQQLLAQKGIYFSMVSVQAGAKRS

Activity: substrate [+]
Compound: CS(=O)(=O)O.Cc1c(N2C[C@@H](N)C3(CC3)C2)c(F)c(N)c2c(=O)c(C(=O)O)cn(C3CC3)c12
